From US20250025473A1 (priority 2021, published 2025)

What was measured:
AKT1 = target: T1, AKT1 (Homo sapiens, UniProt P31749); assay: HotSpot in vitro kinase assay, AKT1; format: biochemical
T1 construct: purchased Reaction Biology Corporation

AKT2 = target: T2, AKT2 (Homo sapiens, UniProt P31751); assay: HotSpot in vitro kinase assay, AKT2; format: biochemical
T2 construct: purchased Reaction Biology Corporation

AKT3 = target: T3, AKT3 (Homo sapiens, UniProt Q9Y243); assay: HotSpot in vitro kinase assay, AKT3; format: biochemical
T3 construct: purchased Reaction Biology Corporation
T3 sequence (Q9Y243 whole entry): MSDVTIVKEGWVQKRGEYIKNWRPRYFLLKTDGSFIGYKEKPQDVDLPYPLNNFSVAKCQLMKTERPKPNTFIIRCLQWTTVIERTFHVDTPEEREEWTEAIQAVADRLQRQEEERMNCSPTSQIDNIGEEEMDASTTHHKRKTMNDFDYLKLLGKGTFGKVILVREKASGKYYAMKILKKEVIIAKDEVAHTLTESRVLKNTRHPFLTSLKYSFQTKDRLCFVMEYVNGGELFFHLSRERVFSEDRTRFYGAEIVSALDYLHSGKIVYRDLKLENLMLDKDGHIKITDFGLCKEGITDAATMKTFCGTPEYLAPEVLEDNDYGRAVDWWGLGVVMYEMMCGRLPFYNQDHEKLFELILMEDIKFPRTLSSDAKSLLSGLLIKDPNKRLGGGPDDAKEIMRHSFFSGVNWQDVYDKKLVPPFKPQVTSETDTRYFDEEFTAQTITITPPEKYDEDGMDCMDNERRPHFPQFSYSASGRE

PDPK1 = target: T4, PDPK1 (Homo sapiens, UniProt O15530); assay: HotSpot in vitro kinase assay, PDPK1; format: biochemical
T4 construct: purchased Reaction Biology Corporation
T4 sequence (O15530 1-556): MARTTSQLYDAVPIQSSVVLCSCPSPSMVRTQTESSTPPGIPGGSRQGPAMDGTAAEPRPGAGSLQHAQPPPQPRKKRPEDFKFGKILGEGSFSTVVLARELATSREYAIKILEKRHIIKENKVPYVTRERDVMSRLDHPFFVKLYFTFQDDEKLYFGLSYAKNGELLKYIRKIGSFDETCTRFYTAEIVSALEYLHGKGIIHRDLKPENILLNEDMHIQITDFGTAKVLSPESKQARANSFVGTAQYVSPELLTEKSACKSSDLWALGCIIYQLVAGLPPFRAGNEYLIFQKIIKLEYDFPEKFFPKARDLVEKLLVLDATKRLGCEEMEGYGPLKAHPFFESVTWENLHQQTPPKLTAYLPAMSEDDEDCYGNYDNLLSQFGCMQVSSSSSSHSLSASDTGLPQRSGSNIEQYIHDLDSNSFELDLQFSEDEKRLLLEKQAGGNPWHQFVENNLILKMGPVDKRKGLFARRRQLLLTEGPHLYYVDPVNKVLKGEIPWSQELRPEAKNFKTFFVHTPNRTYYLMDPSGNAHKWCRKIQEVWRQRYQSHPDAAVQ

[1] = Parallel artificial membrane permeability assay (PAMPA); format: in vitro ADME; details: 100 μM
HaCat cells [2] = assay: Cytotoxicity/viability, confluent HaCat cells; format: cell-based, human; details: 10 μM, fully confluent HaCat cells, up to 120 h
Description: (§1) Results are presented as mean±SEM odu as a percentage of the DMSO control (n=2 independent experiments each conducted in duplicate for C and 1 experiment conducted in duplicate for D). Results in B-D were compared by ANOVA, *p<0.05, **p<0.01, ***p<0.001, ****p<0.0001).
(§2) Cell proliferation and viability were determined using the Cell Titer 96® Aqueous One Solution and optical density was determined using a SpectraMax® M5e Molecular Devices multidetection microplate reader. […] The cells were then fixed and stained for activated caspases (red) and SYTOX Green (for integrity of plasma membrane) by Image-iT™ LIVE red Poly Caspase Detection kit. Nuclei were stained with Hoechst. Images were acquired by laser confocal microscope ZeissLive/DuoScan equipped with oil immersion objectives 63×1.1 and captured in an optical slice of 0.37 μm with appropriate filters. Alternatively, immunoblots were prepared and probed with antibodies to cleaved PARP-1 or cleaved caspase 8.

[3] = test system: primary vaginal epithelial cells; assay: Proliferation and viability, primary vaginal epithelial cells; format: cell-based, human; details: 10 or 50 μM, about 50% confluent primary vaginal epithelial cells, up to 120 h
Description: as §1, §2

[4] = test system: phosphorylated Akt (pAkt T308); format: cell-based, human
HSV-2(G) [5] = assay: HSV binding assay (gD Western blot); format: cell-based; details: 10 μM, HaCat, 4 hours at 4° C.
PLSCR1 [6] = assay: PLSCR1 phosphorylation after HSV-2 (immunoprecipitation/Western); format: cell-based, human; details: 10 μM, HaCat, 30 minutes
Akt, PDPK1, PLCγ = assay: HSV-induced phosphorylation of Akt, PDPK1 and PLCγ (confocal, biotinylation of cell surface proteins); format: cell-based, human; details: 10 μM, HaCat
[7] = test system: VSV-S (VSV pseudotyped with SARS-CoV-2 spike protein); format: cell-based
PLSCR1 [8] = format: cell-based, monkey; details: Vero, 30 minutes; drugs 10 μM each
MDCK-MDR1 cells = details: 5 μM
PKA = PKA (Homo sapiens, UniProt P17612); assay: HotSpot in vitro kinase assay, PKA
ABL1 = ABL1 (Homo sapiens, UniProt P00519); assay: HotSpot in vitro kinase assay, ABL1; details: read-out: Compound IC50, ABL1; in vitro kinase activity
ABL1, sequence (P00519 whole entry): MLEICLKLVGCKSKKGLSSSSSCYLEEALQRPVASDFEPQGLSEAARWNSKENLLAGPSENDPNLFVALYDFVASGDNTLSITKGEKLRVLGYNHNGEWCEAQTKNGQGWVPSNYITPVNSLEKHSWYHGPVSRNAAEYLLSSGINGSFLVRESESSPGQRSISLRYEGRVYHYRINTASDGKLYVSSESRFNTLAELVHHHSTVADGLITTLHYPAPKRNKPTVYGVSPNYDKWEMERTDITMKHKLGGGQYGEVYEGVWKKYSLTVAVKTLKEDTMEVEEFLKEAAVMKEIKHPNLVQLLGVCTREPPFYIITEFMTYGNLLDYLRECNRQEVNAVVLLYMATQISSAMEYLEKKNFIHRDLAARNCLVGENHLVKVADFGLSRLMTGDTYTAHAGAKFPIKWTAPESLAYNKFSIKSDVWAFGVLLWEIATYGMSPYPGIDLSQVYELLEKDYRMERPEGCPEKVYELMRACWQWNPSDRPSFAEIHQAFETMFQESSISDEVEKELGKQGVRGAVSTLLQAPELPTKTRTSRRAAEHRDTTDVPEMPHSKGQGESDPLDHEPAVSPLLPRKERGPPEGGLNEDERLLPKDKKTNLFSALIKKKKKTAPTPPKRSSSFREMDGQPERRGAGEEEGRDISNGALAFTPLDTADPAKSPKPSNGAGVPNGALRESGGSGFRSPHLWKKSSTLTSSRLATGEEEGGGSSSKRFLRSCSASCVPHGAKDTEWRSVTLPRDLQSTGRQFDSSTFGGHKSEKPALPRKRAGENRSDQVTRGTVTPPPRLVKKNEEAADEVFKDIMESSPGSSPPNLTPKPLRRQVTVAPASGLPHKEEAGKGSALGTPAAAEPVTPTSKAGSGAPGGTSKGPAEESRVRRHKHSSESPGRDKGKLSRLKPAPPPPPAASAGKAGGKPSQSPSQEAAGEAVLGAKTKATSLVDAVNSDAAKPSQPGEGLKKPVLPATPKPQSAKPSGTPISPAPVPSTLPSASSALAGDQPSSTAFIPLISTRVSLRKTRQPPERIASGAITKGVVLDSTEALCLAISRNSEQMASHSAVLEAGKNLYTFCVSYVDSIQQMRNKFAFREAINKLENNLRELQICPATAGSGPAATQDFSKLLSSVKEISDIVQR

PKCd = PKCd (Homo sapiens, UniProt Q05655); assay: HotSpot in vitro kinase assay, PKCd; details: read-out: Compound IC50, PKCd; in vitro kinase activity
PKCd, sequence (Q05655 whole entry): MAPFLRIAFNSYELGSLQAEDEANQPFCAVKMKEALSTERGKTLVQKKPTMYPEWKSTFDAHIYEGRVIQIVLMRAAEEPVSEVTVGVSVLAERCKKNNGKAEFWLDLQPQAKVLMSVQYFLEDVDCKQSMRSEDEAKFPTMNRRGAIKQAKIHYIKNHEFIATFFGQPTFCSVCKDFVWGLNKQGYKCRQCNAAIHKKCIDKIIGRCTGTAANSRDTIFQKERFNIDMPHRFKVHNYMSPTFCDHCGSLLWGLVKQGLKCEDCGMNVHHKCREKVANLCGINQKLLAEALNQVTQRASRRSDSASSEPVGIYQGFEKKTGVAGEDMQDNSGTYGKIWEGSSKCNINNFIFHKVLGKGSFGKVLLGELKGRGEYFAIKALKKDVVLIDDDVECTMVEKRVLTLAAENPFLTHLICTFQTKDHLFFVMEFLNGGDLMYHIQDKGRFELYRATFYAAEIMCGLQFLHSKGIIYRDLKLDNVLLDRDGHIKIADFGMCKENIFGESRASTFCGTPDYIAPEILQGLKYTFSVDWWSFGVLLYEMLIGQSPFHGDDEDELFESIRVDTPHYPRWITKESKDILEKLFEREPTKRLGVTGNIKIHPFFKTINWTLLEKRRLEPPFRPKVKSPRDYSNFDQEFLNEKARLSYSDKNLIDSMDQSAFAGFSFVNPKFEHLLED

HSV-2(G) [9] = assay: Synchronized HSV infection (entry kinetics) plaque assay; details: 10 μM, HaCat, 0.5, 1, 1.5 or 2 hours post-temperature shift
HSV-2(G) [10] = assay: Nuclear transport of VP16 (immunoblot of nuclear extracts); details: HaCat and primary vaginal cells, 1 h post-infection; CIMSS 10 μM, antibody 2 μg/ml
HaCat cells [11] = assay: Cell proliferation, ~50% confluent HaCat (Cell Titer 96 Aqueous One)

T1 sequence (P31749 whole entry): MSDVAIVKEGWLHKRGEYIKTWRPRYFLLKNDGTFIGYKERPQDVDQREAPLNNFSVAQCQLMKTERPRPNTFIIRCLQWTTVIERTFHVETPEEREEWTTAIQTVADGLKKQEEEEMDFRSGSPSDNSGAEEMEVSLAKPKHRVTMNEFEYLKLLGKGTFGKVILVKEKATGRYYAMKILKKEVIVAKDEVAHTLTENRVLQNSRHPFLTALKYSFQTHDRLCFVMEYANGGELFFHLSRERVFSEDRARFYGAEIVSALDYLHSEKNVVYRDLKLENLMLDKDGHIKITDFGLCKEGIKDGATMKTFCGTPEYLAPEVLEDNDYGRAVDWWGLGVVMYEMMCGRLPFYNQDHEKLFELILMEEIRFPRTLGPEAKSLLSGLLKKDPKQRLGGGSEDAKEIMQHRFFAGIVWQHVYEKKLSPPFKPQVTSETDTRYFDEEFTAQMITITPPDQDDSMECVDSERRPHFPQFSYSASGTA
T2 sequence (P31751 whole entry): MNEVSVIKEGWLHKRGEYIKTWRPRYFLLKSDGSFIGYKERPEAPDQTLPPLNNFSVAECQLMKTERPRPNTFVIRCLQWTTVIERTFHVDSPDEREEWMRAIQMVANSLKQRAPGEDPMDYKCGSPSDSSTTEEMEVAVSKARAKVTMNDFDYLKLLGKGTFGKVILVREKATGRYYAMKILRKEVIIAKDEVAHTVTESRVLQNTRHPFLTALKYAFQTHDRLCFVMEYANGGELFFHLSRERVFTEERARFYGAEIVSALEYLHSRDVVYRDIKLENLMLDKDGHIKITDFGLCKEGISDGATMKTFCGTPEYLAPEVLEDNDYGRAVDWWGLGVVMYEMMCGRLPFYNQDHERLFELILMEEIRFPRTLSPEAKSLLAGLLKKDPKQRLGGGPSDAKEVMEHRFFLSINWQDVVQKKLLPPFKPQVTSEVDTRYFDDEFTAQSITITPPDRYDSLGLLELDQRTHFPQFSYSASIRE

SMILES: CO[C@@H]1[C@H](N(C)C(=O)CCC(=O)NCc2cn(CCCS(=O)(=O)[O-])nn2)C[C@H]2O[C@]1(C)n1c3ccccc3c3c4c(c5c6ccccc6n2c5c31)C(=O)NC4.[Na+] [CIMSS]
- fold less effective than staurosporine (IC50), Akt1 (AKT1): ~230 fold
- IC50 (AKT1; in vitro kinase activity, read-out: Compound IC50, AKT1): 461 nM
- inhibition at 10 µM (AKT1; read-out: inhibition of Akt1): > 75%
- IC50 (AKT2; in vitro kinase activity, read-out: Compound IC50, AKT2): 1000 nM
- inhibition at 10 µM (AKT2; read-out: inhibition of Akt2): > 75%
- IC50 (AKT3; in vitro kinase activity, read-out: Compound IC50, AKT3): 157 nM
- inhibition at 10 µM (AKT3; read-out: inhibition of Akt3): > 75%
- IC50 for PDPK1 compared with staurosporine (PDPK1): comparable
- IC50 (PDPK1; in vitro kinase activity, read-out: Compound IC50, PDPK1): 0.278 nM
- inhibition at 10 µM (PDPK1; read-out: inhibition of PDPK1): > 75%
- Recover %, PAMPA [1]: 83%
- cytotoxicity (HaCat cells [2]): little or no cytotoxicity
- cytotoxicity [3]: little or no cytotoxicity
- concentration without inhibition of intracellular Akt phosphorylation in response to insulin, relative to the parental drug [4]: 100-1000 fold
- dose inhibiting intracellular Akt phosphorylation in response to insulin ([4]; HaCat, 10 μM insulin, permeabilized cells): > 100 µM
- HSV binding to cells (HSV-2(G) [5]): did not block
- phosphorylation of PLSCR1 after HSV-2 (PLSCR1 [6]): not
- pPDPK1 and pPLCγ signal by confocal microscopy (Akt, PDPK1, PLCγ; 15 and 30 minutes following viral infection): inhibited
- phosphorylation of PDPK1, PLCγ and Akt in the membrane fraction (Akt, PDPK1, PLCγ; 15 minutes of HSV exposure, biotinylation): reduced
- VSV-S infection (plaques or viral yields) [7]: inhibited
- VSV-S infection, percentage of GFP+ cells [7]: significantly reduced
- phosphorylation of PLSCR1 after VSV-S (PLSCR1 [8]): preserved
- Recover %, MDCK Transport (MDCK-MDR1 cells): 96%
- fold less effective than staurosporine (IC50), PKA (PKA): ~46 fold
- IC50 (PKA; read-out: Compound IC50, PKA, in vitro kinase activity): 42.3 nM
- IC50 (ABL1): 143 nM
- IC50 (PKCd): 3.64 nM
- viral plaque formation, synchronized infection (HSV-2(G) [9]): significant reduction
- nuclear transport of VP-16 (HSV-2(G) [10]): inhibited
- lowest concentration significantly inhibiting HaCat cell growth (HaCat cells [11]; 24 h): no significant inhibition
- lowest concentration significantly inhibiting HaCat cell growth (HaCat cells [11]; 72 h): 100 µM
